The results in this text go back to paper PMC12216759 (Nature Communications, 2025).

What all share (assay type): biochemical
Assay [1] deals with T1, SHV-5 M69I (Enterobacter cloacae, UniProt Q6QNE1, M65I). The assay is described as follows: hydrolysis kinetics of purified enzyme.
In assay [2] the target is T2, SHV-5 (Enterobacter cloacae, UniProt Q6QNE1). Briefly: steady-state hydrolysis kinetics of purified enzyme.
The target of assay [3] is T1, SHV-5 M69I. The description is as above.
In assay [4] the target is T2, SHV-5. The description is as above. This is another data set of the same source.
Assay [5] deals with T2, SHV-5. Described as above. This is another data set of the same source.
The target of assay [6] is T1, SHV-5 M69I. The assay is described as above. The source holds these as a separate data set.

For `CC(C)(O/N=C(\C(=O)N[C@@H]1C(=O)N2C(C(=O)[O-])=C(C[N+]3(CCNC(=O)c4ccc(O)c(O)c4Cl)CCCC3)CS[C@H]12)c1csc(N)n1)C(=O)O` [cefiderocol], the “hydrolysis kinetics of purified enzyme (UV, 259 nm); KM too high to determine” value at SHV-5 M69I [1] is on record as 1.2 × 10^3 M^−1s^−1 (kcat/KM). For the same compound, the “steady-state hydrolysis kinetics of purified enzyme (UV, 259 nm)” value at SHV-5 [2] is reported as 9 × 10^3 M^−1s^−1 (kcat/KM).
On to `CO/N=C(\C(=O)N[C@@H]1C(=O)N2C(C(=O)O)=C(COC(C)=O)CS[C@H]12)c1csc(N)n1` [cefotaxime], for which the entries for the “steady-state hydrolysis kinetics of purified enzyme (UV, 264 nm)” value on SHV-5 M69I [3] and on SHV-5 [4] were 2.3 × 10^4 M^−1s^−1 (kcat/KM) and 8 × 10^5 M^−1s^−1 (kcat/KM), respectively.
For `CC(=O)OCC1=C(C(=O)O)N2C(=O)[C@@H](NC(=O)Cc3cccs3)[C@H]2SC1` [cephalothin], the “steady-state hydrolysis kinetics of purified enzyme (UV, 262 nm)” value is 1 ×10^6 M^−1s^−1 (kcat/KM) at SHV-5 [5] and 8 × 10^4 M^−1s^−1 (kcat/KM) on SHV-5 M69I [6].
